This is an account of results in PubChem BioAssay (NCI).

Among the test systems are MDA-MB-435; TK-10 renal; OVCAR-8 ovarian; HCT-15 colon; MALME-3M melanoma; SF-295 CNS; HCT-116 colon; HL-60(TB) leukemia; NCI/ADR-RES ovarian; NCI-H522 lung; OVCAR-5 ovarian.
Test in all cases: NCI anticancer screen, dose series, 48 h

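How tested: cells in 96-well plates exposed to compound for 48 hours at five concentrations. Abbreviation: GI50, concentration required for 50% inhibition of growth. Definition used: TGI = concentration required for complete inhibition of growth.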

`CCOC(=O)C1=C(C)OC2(O)C=CC(O)=C3C(=O)N(c4ccccc4)C(=O)C312` (stereo not drawn): the TGI is above 100 µM in the experiment on MDA-MB-435; above 100 µM with TK-10 renal; above 100 µM in the experiment on OVCAR-8 ovarian; above 100 µM with HCT-15 colon; 41.7 µM in the experiment on MALME-3M melanoma; above 100 µM in the experiment on SF-295 CNS. For the same compound, the TGI with HCT-116 colon was above 100 µM; with HL-60(TB) leukemia it was above 100 µM; with NCI/ADR-RES ovarian, above 100 µM; in the experiment with NCI-H522 lung, 35.6 µM; with OVCAR-5 ovarian it was above 100 µM.

For `NN(CC(=O)O)CC(=O)O`, the TGI with MDA-MB-435, in the experiment with TK-10 renal, in the experiment with OVCAR-8 ovarian, in the experiment on HCT-15 colon, in the experiment on MALME-3M melanoma and in the experiment with SF-295 CNS was above 100 µM each time. Besides, the TGI in the experiment on HCT-116 colon, in the experiment on HL-60(TB) leukemia, in the experiment on NCI/ADR-RES ovarian, with NCI-H522 lung and in the experiment on OVCAR-5 ovarian was above 100 µM in each case.

For the compound `CN1CCc2[nH]c3ccccc3c2C1`, the TGI in the experiment on OVCAR-8 ovarian, in the experiment with HCT-15 colon, in the experiment with MALME-3M melanoma, with SF-295 CNS, in the experiment with HCT-116 colon and with HL-60(TB) leukemia was above 100 µM in each case. Besides, the TGI with NCI/ADR-RES ovarian, in the experiment on NCI-H522 lung and in the experiment on OVCAR-5 ovarian was above 100 µM in each case.

On to `Nc1ncnc2nc[nH]c12`, for which the TGI in the experiment on OVCAR-8 ovarian was above 250 µM; in the experiment with HCT-15 colon, above 250 µM; in the experiment on MALME-3M melanoma it was above 232 µM; in the experiment with SF-295 CNS it was above 250 µM; in the experiment on HCT-116 colon it was above 250 µM; in the experiment with HL-60(TB) leukemia, 228 µM. Also, the TGI was 99.5 µM with NCI/ADR-RES ovarian, 220 µM in the experiment with NCI-H522 lung and above 250 µM with OVCAR-5 ovarian. Further, the GI50 in the experiment with MALME-3M melanoma is 86 µM.

As to `COc1cc2c(c(O)c1OC)-c1c(cc(OC)c(OC)c1OC)CC(C)C(C)C2` (stereo not drawn), the TGI in the experiment on MDA-MB-435, in the experiment with TK-10 renal, in the experiment with OVCAR-8 ovarian, in the experiment on HCT-15 colon, with MALME-3M melanoma and in the experiment on SF-295 CNS was above 100 µM each time. The TGI was above 100 µM in the experiment on HCT-116 colon, 55.2 µM in the experiment on HL-60(TB) leukemia, above 100 µM in the experiment on NCI-H522 lung and above 100 µM with OVCAR-5 ovarian.

As for `O=C([O-])C[n+]1ccccc1`, the TGI in the experiment on MDA-MB-435, with TK-10 renal, in the experiment on OVCAR-8 ovarian, in the experiment on HCT-15 colon, in the experiment with MALME-3M melanoma and with SF-295 CNS was above 100 µM each time. In addition, the TGI in the experiment on HCT-116 colon, in the experiment on HL-60(TB) leukemia, with NCI/ADR-RES ovarian, with NCI-H522 lung and in the experiment with OVCAR-5 ovarian was above 100 µM in each case.

Turning to `CC(CCN)(CCN)[N+](=O)[O-]`, the TGI with MDA-MB-435, with TK-10 renal, in the experiment with OVCAR-8 ovarian, with HCT-15 colon, in the experiment with MALME-3M melanoma and in the experiment on SF-295 CNS was above 100 µM in each case. The TGI in the experiment on HCT-116 colon, in the experiment on HL-60(TB) leukemia, in the experiment with NCI/ADR-RES ovarian, with NCI-H522 lung and in the experiment on OVCAR-5 ovarian was above 100 µM each time.

Turning to `CN(C)CCCSc1nc2ccccc2[nH]1`, the TGI with MDA-MB-435, with TK-10 renal, with OVCAR-8 ovarian, in the experiment with HCT-15 colon, in the experiment with MALME-3M melanoma and with SF-295 CNS was above 100 µM throughout. Besides, the TGI in the experiment with HCT-116 colon, in the experiment on NCI/ADR-RES ovarian, in the experiment on NCI-H522 lung and in the experiment with OVCAR-5 ovarian was above 100 µM throughout.

For `CCCCCCCCCCCCCCCCCCOc1ccccc1CC(=O)OCC[N+]1(C)CCCCC1`, the GI50 in the experiment on MDA-MB-435 was 1700 nM; in the experiment on OVCAR-8 ovarian, 2400 nM; in the experiment on HCT-15 colon it was 4.65 µM; in the experiment on MALME-3M melanoma it was 1.97 µM; in the experiment with SF-295 CNS, 2930 nM; in the experiment with HL-60(TB) leukemia it was 1920 nM. Further, the results for the GI50 in the experiment on NCI/ADR-RES ovarian and in the experiment with OVCAR-5 ovarian were 14.9 µM and 2320 nM, respectively. The TGI in the experiment with MDA-MB-435 came out at 3.2 µM; in the experiment with OVCAR-8 ovarian, 5.99 µM; in the experiment on HCT-15 colon, 27.7 µM; with MALME-3M melanoma, 4.86 µM; in the experiment on SF-295 CNS, 9.62 µM; with HL-60(TB) leukemia it was 4.36 µM. Also, the TGI was found to be 46.6 µM in the experiment on NCI/ADR-RES ovarian and 7.49 µM in the experiment on OVCAR-5 ovarian.

`O=C(O)c1cc([N+](=O)[O-])cc2c(=O)c3cnccc3[nH]c12`: the TGI in the experiment on MDA-MB-435, with OVCAR-8 ovarian, in the experiment on HCT-15 colon, in the experiment with MALME-3M melanoma, with SF-295 CNS and with HCT-116 colon was above 100 µM in each case. In addition, the TGI in the experiment on HL-60(TB) leukemia, in the experiment with NCI/ADR-RES ovarian, with NCI-H522 lung and in the experiment on OVCAR-5 ovarian was above 100 µM throughout.

Turning to `CN1CCOC(c2ccc(Cl)cc2)O1` (stereo not drawn), the TGI in the experiment on MDA-MB-435, in the experiment on TK-10 renal, with OVCAR-8 ovarian, in the experiment with HCT-15 colon, with MALME-3M melanoma and with SF-295 CNS was above 100 µM each time. Also, the TGI with NCI/ADR-RES ovarian, in the experiment on NCI-H522 lung and in the experiment on OVCAR-5 ovarian was above 100 µM each time.

With `O=C(Nc1ccc(Cl)cc1)c1cc2cc(N=Nc3ccccc3Cl)ccc2oc1=O`, the TGI with TK-10 renal stood at 89.4 µM; in the experiment on OVCAR-8 ovarian, 59 µM; in the experiment with HCT-15 colon, 24.1 µM; in the experiment on MALME-3M melanoma, 48.3 µM; in the experiment with SF-295 CNS, 91.9 µM; in the experiment with HCT-116 colon, 23.3 µM. In addition, the TGI with HL-60(TB) leukemia came out at 10.3 µM; in the experiment on NCI-H522 lung it was 53.2 µM; in the experiment on OVCAR-5 ovarian, 91.3 µM.

Consider `CN(CCCCCl)P(=O)(OCc1ccc([N+](=O)[O-])o1)OC[C@H]1O[C@@H](n2cc(F)c(=O)[nH]c2=O)C[C@@H]1O` (stereo partly drawn), for which the TGI in the experiment with MDA-MB-435 is 39 µM; with TK-10 renal, above 79.8 µM; with OVCAR-8 ovarian, above 100 µM; in the experiment on HCT-15 colon, above 100 µM; in the experiment on MALME-3M melanoma it was 36.1 µM; with SF-295 CNS, 3.48 µM. Also, the TGI is above 43.8 µM in the experiment on HCT-116 colon; above 23.6 µM in the experiment with HL-60(TB) leukemia; 36.3 µM in the experiment on NCI/ADR-RES ovarian; 19.5 µM in the experiment on NCI-H522 lung; above 100 µM in the experiment with OVCAR-5 ovarian.

Regarding `CCOc1ccc(NC(=O)C(=O)CC(=O)c2sc(NNC(C)=O)nc2C)cc1`, the TGI with TK-10 renal, in the experiment with OVCAR-8 ovarian, with HCT-15 colon, with SF-295 CNS, with HCT-116 colon and in the experiment on HL-60(TB) leukemia was above 100 µM throughout. Besides, the TGI in the experiment on NCI-H522 lung and in the experiment with OVCAR-5 ovarian was above 100 µM throughout.

In the case of `C[C@]12C=CC(=O)C=C1CC[C@@H]1[C@@H]2CC[C@]2(C)OC(=O)CC[C@@H]12`, the TGI with MDA-MB-435 was above 500 µM; with TK-10 renal, above 500 µM; with OVCAR-8 ovarian, 498 µM; in the experiment with HCT-15 colon, above 500 µM; with MALME-3M melanoma, above 500 µM; in the experiment on SF-295 CNS, above 500 µM. In addition, the TGI in the experiment with HCT-116 colon was above 482 µM; in the experiment with HL-60(TB) leukemia it was 476 µM; in the experiment with NCI/ADR-RES ovarian, above 500 µM; with NCI-H522 lung, 457 µM; in the experiment on OVCAR-5 ovarian it was above 500 µM.

In the case of `CC(C)=CCC/C(C)=C/CC/C(C)=C/CC/C(C)=C/C=C/C=C(\C)CC/C=C(\C)CC/C=C(\C)CCC=C(C)C`, the TGI with MDA-MB-435 was above 100 µM; in the experiment with TK-10 renal it was above 74.3 µM; in the experiment on OVCAR-8 ovarian it was above 88.2 µM; in the experiment with HCT-15 colon, above 100 µM; in the experiment with MALME-3M melanoma, above 100 µM; in the experiment with SF-295 CNS it was above 100 µM. In addition, the TGI with HCT-116 colon is above 100 µM; in the experiment with HL-60(TB) leukemia, 4.96 µM; in the experiment with NCI/ADR-RES ovarian, above 82.9 µM; with NCI-H522 lung, 31.4 µM; in the experiment with OVCAR-5 ovarian, above 100 µM.
